The subject of test [1] is Escherichia coli (E. coli, ATCC 25922). In words: Anti-microbial performance of finished textiles, shock method (GB/T 20944.3-2007). The format is cell-based. The protocol:
(§1) (1) A comparison of the anti-microbial effects of textiles soaked with compound E obtained in Example 2 and unsoaked textiles was shown in FIG. 1. The experimental procedure was: The anti-microbial performance of the finishing text was tested by the shock method (GB/T 20944.3-2007). The tested microorganism were Gram-negative Escherichia coli (E. coli, ATCC 25922) and Gram-positive Staphylococcus Aureus (S. Aureus, ATCC 6538). The specific experimental operations are as follows: 1) inoculating and culturing the microorganisms at 37° C. for 14 h; diluting the microbial solution to 10^−5 using a sterilized PBS buffer (pH=7.2) to obtain a diluted microbial solution; 2) taking the same size of blank textiles (e.g., cloth) and textiles (finished using compound E and sterilized) in different 50 mL tubes, adding 5 mL of diluted microbial solution to immerse the textiles, sealing the tubes and putting the tubes on a shaker for shaking the tubes under 37° C. at 190 r/min for 24 h; 3) after 24 hours of cultivation, the tubes were taken out and diluted to 10 times using a PBS solution. 100 μL of the diluted microbial solution was added to the nutrient agar medium, uniformly spread to dryness, placed in an incubator, and cultured at 37° C. for 16 h, and then the plates were taken out, and the number of colonies in each plate was counted. The anti-microbial rate was calculated by the following equation: Anti-microbial rate (%)=[…]. Notes: N1 denotes the number of colonies in the finished cloth; N0 denotes the number of colonies in blank cloth.
(§2) The inhibitory effect of compound E obtained in Example 19 on Escherichia coli and Staphylococcus Aureus at various concentrations was shown in FIGS. 3 to 5. The experimental procedure was: using the enzyme linked immunosorbent assay to determine the minimal inhibitory concentration (MIC) value of the anti-microbial drug, and adding the diluted anti-microbial drug solution to the sterilized 100-well plate, respectively. Specifically, 10 ul of drug solution (i.e., a solution of compound E) was added to the first to eleventh holes at concentrations of 100 μg/ml, 90 μg/ml, 80 μg/ml, 70 μg/ml, 60 μg/ml, 50 μg/ml, 40 μg/ml, 30 μg/ml, 20 μg/ml, 10 μg/ml, 5 μg/ml. The drug solution was not added to the twelfth hole which serves as a control group; the bacterial suspension was diluted by LB broth (0.5 Mcfarland Standard dilution to 1000 times with a bacterial concentration of 105 colony-forming unit (CFU)/ml), and 90 μl of the bacterial suspension was added to each well. […] The change curve of OD600 value for 24 h was measured in a microplate reader (automatic growth-curve machine). […]

Test [2] has as its system Staphylococcus Aureus (S. aureus, ATCC 6538). Described as above. It counts as cell-based. The protocol:
as §1, §2

Test [3] shares this test system. Kind of test: Anti-microbial rate of finished cotton textiles, FZ/T73023-2006 D.8 shocking method. It counts as cell-based. The conditions noted are these: Staphylococcus aureus, ATCC6538, finishing liquid 1.0 wt %, read-out: Anti-microbial rate (%) of cotton textiles finished with compound E (1.0 wt %), S. aureus. An excerpt:
(§3) Each of the reaction products (i.e., compound E) according to Examples 1-21 was used to prepare an anti-microbial agent (e.g., a finishing liquid), and the anti-microbial effects were different depending on compound E and conditions of use.
(§4) Remarks: 1) in the data of anti-microbial rate in Table 5: Examples 1-9 used a soaking-rolling-drying process to finish cotton fabric, where the bath ratio (i.e., the ratio of the weight of a liquid containing compound E to the weight of the cotton fabric) was 20:1, the residual liquid ratio was 90%, and the drying process was conducted at 85° C. for 30 minutes; Examples 10-18 were prepared by a soaking-high speed spinning-drying method, where the bath ratio was 20:1, the residual liquid ratio was 90%, and the drying process was conducted at 85° C. for 20 min; Examples 19-21 were prepared by a spraying-spinning-drying process with a bath ratio of 30:1, a residual liquid ratio of 85% after drying, and the drying process was conducted at 105° C. for 5 minutes.
(§5) 2) Table 5 data test method: FZ/T73023-2006 anti-microbial textiles D.8 shocking method. In addition, the inhibition zone method (FZ/T73023-2006 anti-microbial textiles—Appendix E—inhibition zone method) was used to test whether the active compound (E) was released from the finished cotton textiles, the inhibition zone test result of the 21 examples and zwitterions were 0 mm, and thus compound E was not released from the finished cotton textiles. The anti-microbial finishing agent used in the comparative experiment was zwitterion with the molecular structure
(§6) 3) The composition of the finishing liquid in Table 5 was: compound E 1.0 wt %, sodium bicarbonate 1.0 wt %, and the rest of the finishing liquid was water.

Test [4] deals with Escherichia Coli (E. coli, ATCC25922). The description is as above. As to conditions: Escherichia coli, ATCC25922, finishing liquid 1.0 wt %, read-out: Anti-microbial rate (%) of cotton textiles finished with compound E (1.0 wt %), E. coli. It counts as cell-based.
From the text: as §3, §4, §5, §6

The subject of test [5] is Candida Albicans (C. albicans 10231). Described as above. The format is cell-based. As to conditions: Candida albicans, finishing liquid 1.0 wt %, read-out: Anti-microbial rate (%) of cotton textiles finished with compound E (1.0 wt %), C. albicans.
From the text: as §3, §4, §5, §6

Test [6] concerns Gram-negative bacteria (E. coli). Kind of test: Anti-microbial performance of finished textiles, live cell counting method. The format is cell-based. As to conditions: textiles soaked with compound E (1.0 wt %). The protocol: (§7) (2) A comparison of the anti-microbial effects of textiles soaked with compound E obtained in Example 11 and unsoaked textiles was shown in FIG. 2. The experimental procedure was as follows: the anti-microbial performance of the finished textiles was tested by the live cell counting method, and the anti-mite activity of the house dust mites was evaluated according to the national standard method (GB/T 24253-2009).

For test [7], the system named is Gram-positive bacteria (Staphylococcus aureus). The test is described as above. It counts as cell-based. The conditions noted are these: textiles soaked with compound E (1.0 wt %). The protocol:
as §7

In test [8] the test system is fungi (Aspergillus niger). The test is described as above. As to conditions: textiles soaked with compound E (1.0 wt %). The format is cell-based. The protocol: as §7
The subject of a further test is house dust mites. In words: Anti-mite activity of finished textiles (GB/T 24253-2009). It counts as in vivo. The protocol: as §7
A further test deals with Escherichia coli. In words: Minimal inhibitory concentration (MIC), OD600 growth curve in microplate reader. It counts as cell-based. As to conditions: LB broth, OD600 for 24 h, read-out: minimum inhibitory concentration against Escherichia coli. Here is the method:
(§8) The inhibitory effect of compound E obtained in Example 19 on Escherichia coli and Staphylococcus Aureus at various concentrations was shown in FIGS. 3 to 5. The experimental procedure was: using the enzyme linked immunosorbent assay to determine the minimal inhibitory concentration (MIC) value of the anti-microbial drug, and adding the diluted anti-microbial drug solution to the sterilized 100-well plate, respectively. Specifically, 10 ul of drug solution (i.e., a solution of compound E) was added to the first to eleventh holes at concentrations of 100 μg/ml, 90 μg/ml, 80 μg/ml, 70 μg/ml, 60 μg/ml, 50 μg/ml, 40 μg/ml, 30 μg/ml, 20 μg/ml, 10 μg/ml, 5 μg/ml. The drug solution was not added to the twelfth hole which serves as a control group; the bacterial suspension was diluted by LB broth (0.5 Mcfarland Standard dilution to 1000 times with a bacterial concentration of 105 colony-forming unit (CFU)/ml), and 90 μl of the bacterial suspension was added to each well. At this time, the drug concentrations of the first to the eleventh holes were 10 μg/ml, 9 μg/ml, 8 μg/ml, 7 μg/ml, and 6 μg/ml, 5 μg/ml, 4 μg/ml, 3 μg/ml, 2 μg/ml, 1 μg/ml, 0.5 μg/ml respectively. The change curve of OD600 value for 24 h was measured in a microplate reader (automatic growth-curve machine). […]

The next test concerns Staphylococcus Aureus. The description is as above. The format is cell-based. As to conditions: LB broth, OD600 for 24 h, read-out: minimum inhibitory concentration against Staphylococcus Aureus. Here is the method:
as §8

Where [9] appears, read: both finishing liquids 1.0 wt %.
Where [10] appears, read: finished cloth, concentration of compound E >0.1%.

Read-outs that look alike come from different tables or passages of the source.

Regarding `CCCCCCCC[N+](C)(C)CCOc1nc(Cl)nc(Cl)n1` [Example 1], the “anti-microbial activity of finishing liquid compared with zwitterionic finishing liquid, E. coli” value in test [1] (setting [9]) is given as “greater than that of the zwitterionic finishing liquid”. In addition, the “anti-microbial activity of finishing liquid compared with zwitterionic finishing liquid, S. aureus” value in test [2] (setting [9]) is on record as “greater than that of the zwitterionic finishing liquid”. The killing at 1 % in test [3] (times of washing 0) amounted to 100%; in test [3] (times of washing 10), 99.9%; in test [3] (times of washing 50), 99.8%; in test [4] (times of washing 0), 100%; in [4] (times of washing 10) it was 99.9%; in test [4] (times of washing 50) it was 99.2%. Besides, the killing at 1 % is 99.9% in test [5] (times of washing 0), 99.9% in test [5] (times of washing 10) and 98.9% in [5] (times of washing 50).

On to `CCCCCCCCCCCCCCCCCC[n+]1ccn(CCOc2nc(Cl)nc(Cl)n2)c1` [Example 11], for which the “bacteriostatic rate, E. coli” value in test [6] is recorded as “over 99.99%”. The “bacteriostatic rate, Staphylococcus aureus” value in [7] is reported as “over 99.99%”. Further, in [8], the “bacteriostatic rate, Aspergillus niger” value is recorded as “over 99.99%”. The “acaricidal activity against house dust mites” value in the test with house dust mites was “good acaricidal activity”. For the same compound, the killing at 1 % in [3] (times of washing 0) was determined as 100%; in test [3] (times of washing 10), 99.9%; in [3] (times of washing 50) it was 99.9%; in [4] (times of washing 0), 100%; in [4] (times of washing 10), 99.9%; in test [4] (times of washing 50), 99.9%. The killing at 1 % came out at 99.9% in [5] (times of washing 0), 99.9% in [5] (times of washing 10) and 99.6% in test [5] (times of washing 50).

With `Br.CCCCCCCCCC[N+](C)(C)CN(CCOc1nc(Cl)nc(Cl)n1)C[N+](C)(C)CCCCCCCCCC` [Example 19], the figures for the MIC in the test on Escherichia coli and with Staphylococcus Aureus were 4 µg/mL and 1 µg/mL, respectively. Besides, the “anti-microbial rate of the anti-microbial finishing liquid, E. coli” value in [1] (setting [10]) was over 99.9%. Moreover, the “anti-microbial rate of the anti-microbial finishing liquid, S. aureus” value in test [2] (setting [10]) is over 99.9%. Further, the killing at 1 % in test [3] (times of washing 0) turned out to be 100%; in test [3] (times of washing 10) it was 99.9%; in [3] (times of washing 50) it was 99.8%; in test [4] (times of washing 0), 100%; in test [4] (times of washing 10) it was 99.9%; in test [4] (times of washing 50), 99.7%. For the same compound, the killing at 1 % in test [5] (times of washing 0) was 99.9%; in test [5] (times of washing 10), 99.9%; in test [5] (times of washing 50) it was 97.9%.

Source of the values: patent US12290073B2, “Anti-microbial compound and methods of use” (SHENZHEN UNIVERSITY, priority 2019, dated 2025).
